# Reference: US10194663B2, “Chemical stabilization of iodosulfuron-methyl sodium salt by hydroxystearates” (BAYER CROPSCIENCE AG, priority 2012, dated 2019)
# Assay: Storage stability: degradation of IMS in OD formulations, determined by HPLC
# Assay type: physicochemical
# Conditions: for Degradation of IMS after 1 week at 54° C. / Degradation of IMS after 4 weeks at 40° C. / Degradation of IMS after 8 weeks at 40° C. / Degradation of IMS after 12 weeks at 35° C. / Degradation of IMS after 2 weeks at 54° C. / Degradation of IMS after 8 weeks at 40° C0: Emulsogen EL 400 10%
# Excerpt: The sodium salt of iodosulfuron-methyl (iodosulfuron-methyl-sodium, IMS) is finely dispersed by means of a rotor-stator mixer together with a customary emulsifier such as Emulsogen EL 400® (castor oil polyglycol ether from Clariant AG) in the solvents customary for OD formulations (oil dispersion formulations), such as rapeseed oil methyl ester or Solvesso 200 ND® (aromatics mixture from Exxon AG). Further formulation auxiliaries such as the thickener Bentone 38® (sheet silicate from Elementis AG) or the polymers Ligalub PEG 400 MO® (polyethylene glycol monooleate from Peter Greven GmbH), Ligalub 12 GE® (glyceryl dioleate from Peter Greven GmbH) or Ligalub 71 KE® (complex ester from Peter Greven GmbH) can, inter alia, also be added to the system. Furthermore, lithium hydroxystearate (lithium soap of a 12-hydroxystearic acid) was also additionally added for comparison purposes to each mixture.
# Tables 1 to 9 show the compositions of the tested OD formulations (% data in % by weight).
# The degradation of the IMS is determined here by means of HPLC.
# The degradation is expressed here in tables 1 to 9 in—xx %. This means that after the relevant period xx % of the originally present IMS was already degraded.
# [1] = Table 1 OD formulation: IMS 0.5%, Lithium hydroxystearate 0%, Bentone 38 1.2%, Rapeseed oil methyl ester 88.3%
# [2] = Table 1 OD formulation: IMS 0.5%, Lithium hydroxystearate 1%, Bentone 38 1.2%, Rapeseed oil methyl ester 87.3%
# [3] = Table 2 OD formulation: IMS 0.5%, Lithium hydroxystearate 0%, Solvesso 200 ND 89.5%
# [4] = Table 2 OD formulation: IMS 0.5%, Lithium hydroxystearate 0.5%, Solvesso 200 ND 89%
# [5] = Table 2 OD formulation: IMS 0.5%, Lithium hydroxystearate 1%, Solvesso 200 ND 88.5%
# [6] = Table 2 OD formulation: IMS 0.5%, Lithium hydroxystearate 5%, Solvesso 200 ND 84.5%
# [7] = Table 3 OD formulation: IMS 2%, Lithium hydroxystearate 0%, Solvesso 200 ND 88%
# [8] = Table 3 OD formulation: IMS 2%, Lithium hydroxystearate 1%, Solvesso 200 ND 87%
# [9] = Table 4 OD formulation: IMS 0.5%, Lithium hydroxystearate 0%, Ligalub PEG 400 MO 15%, Solvesso 200 ND 74.5%
# [10] = Table 4 OD formulation: IMS 0.5%, Lithium hydroxystearate 1%, Ligalub PEG 400 MO 15%, Solvesso 200 ND 73.5%
# [11] = Table 5 OD formulation: IMS 0.5%, Lithium hydroxystearate 0%, Ligalub PEG 400 MO 30%, Bentone 38 1.2%, Rapeseed oil methyl ester 58.3%
# [12] = Table 5 OD formulation: IMS 0.5%, Lithium hydroxystearate 1%, Ligalub PEG 400 MO 30%, Bentone 38 1.2%, Rapeseed oil methyl ester 57.3%
# [13] = Table 6 OD formulation: IMS 2%, Lithium hydroxystearate 0%, Ligalub PEG 400 MO 15%, Solvesso 200 ND 73%
# [14] = Table 6 OD formulation: IMS 2%, Lithium hydroxystearate 1%, Ligalub PEG 400 MO 15%, Solvesso 200 ND 72%
# [15] = Table 7 OD formulation: IMS 0.5%, Lithium hydroxystearate 0%, Ligalub 12 GE 30%, Bentone 38 1.2%, Rapeseed oil methyl ester 58.3%
# [16] = Table 7 OD formulation: IMS 0.5%, Lithium hydroxystearate 1%, Ligalub 12 GE 30%, Bentone 38 1.2%, Rapeseed oil methyl ester 57.3%
# [17] = Table 8 OD formulation: IMS 0.5%, Lithium hydroxystearate 0%, Ligalub 71 KE 15%, Solvesso 200 ND 74.5%
# [18] = Table 8 OD formulation: IMS 0.5%, Lithium hydroxystearate 1%, Ligalub 71 KE 15%, Solvesso 200 ND 73.5%
# [19] = Table 9 OD formulation: IMS 0.5%, Lithium hydroxystearate 0%, Ligalub 71 KE 30%, Bentone 38 1.2%, Rapeseed oil methyl ester 58.3%
# [20] = Table 9 OD formulation: IMS 0.5%, Lithium hydroxystearate 1%, Ligalub 71 KE 30%, Bentone 38 1.2%, Rapeseed oil methyl ester 57.3%
compound,measurement,setting,value
"COC(=O)c1ccc(I)cc1S(=O)(=O)[N-]C(=O)Nc1nc(C)nc(OC)n1.[Na+] [IMS, iodosulfuron-methyl sodium salt]",Degradation of IMS after 1 week at 54° C.,[1],−78.3%
same,Degradation of IMS after 4 weeks at 40° C.,[1],−46.4%
same,Degradation of IMS after 8 weeks at 40° C.,[1],−69.7%
same,Degradation of IMS after 12 weeks at 35° C.,[1],−57.8%
same,Degradation of IMS after 1 week at 54° C.,[2],−23.9%
same,Degradation of IMS after 4 weeks at 40° C.,[2],−5%
same,Degradation of IMS after 8 weeks at 40° C.,[2],−8.7%
same,Degradation of IMS after 12 weeks at 35° C.,[2],−6.3%
same,Degradation of IMS after 2 weeks at 54° C.,[3],−87.9%
same,Degradation of IMS after 4 weeks at 40° C.,[3],−29.9%
same,Degradation of IMS after 2 weeks at 54° C.,[4],−32.2%
same,Degradation of IMS after 4 weeks at 40° C.,[4],−7.4%
same,Degradation of IMS after 2 weeks at 54° C.,[5],−28%
same,Degradation of IMS after 4 weeks at 40° C.,[5],−3.4%
same,Degradation of IMS after 2 weeks at 54° C.,[6],−14.7%
same,Degradation of IMS after 4 weeks at 40° C.,[6],−3.6%
same,Degradation of IMS after 2 weeks at 54° C.,[7],−34.6%
same,Degradation of IMS after 4 weeks at 40° C.,[7],−5.2%
same,Degradation of IMS after 2 weeks at 54° C.,[8],−13.1%
same,Degradation of IMS after 4 weeks at 40° C.,[8],−0.2%
same,Degradation of IMS after 2 weeks at 54° C.,[9],−93.2%
same,Degradation of IMS after 4 weeks at 40° C.,[9],−34.9%
same,Degradation of IMS after 2 weeks at 54° C.,[10],−37.8%
same,Degradation of IMS after 4 weeks at 40° C.,[10],−7.2%
same,Degradation of IMS after 2 weeks at 54° C.,[11],−87.4%
same,Degradation of IMS after 4 weeks at 40° C.,[11],−51.6%
same,Degradation of IMS after 8 weeks at 40° C0,[11],−77.2%
same,Degradation of IMS after 12 weeks at 35° C.,[11],−66.8%
same,Degradation of IMS after 2 weeks at 54° C.,[12],−45.8%
same,Degradation of IMS after 4 weeks at 40° C.,[12],−14.8%
same,Degradation of IMS after 8 weeks at 40° C0,[12],−21%
same,Degradation of IMS after 12 weeks at 35° C.,[12],−13.6%
same,Degradation of IMS after 2 weeks at 54° C.,[13],−81.8%
same,Degradation of IMS after 4 weeks at 40° C.,[13],−32.9%
same,Degradation of IMS after 2 weeks at 54° C.,[14],−32.7%
same,Degradation of IMS after 4 weeks at 40° C.,[14],−3.2%
same,Degradation of IMS after 1 week at 54° C.,[15],−42.4%
same,Degradation of IMS after 4 weeks at 40° C.,[15],−76.6%
same,Degradation of IMS after 8 weeks at 40° C.,[15],−65.9%
same,Degradation of IMS after 12 weeks at 35° C.,[15],−55.7%
same,Degradation of IMS after 1 week at 54° C.,[16],−11.8%
same,Degradation of IMS after 4 weeks at 40° C.,[16],−3.6%
same,Degradation of IMS after 8 weeks at 40° C.,[16],−4.7%
same,Degradation of IMS after 12 weeks at 35° C.,[16],−5.3%
same,Degradation of IMS after 2 weeks at 54° C.,[17],−66.6%
same,Degradation of IMS after 4 weeks at 40° C.,[17],−65%
same,Degradation of IMS after 2 weeks at 54° C.,[18],−9.86%
same,Degradation of IMS after 4 weeks at 40° C.,[18],−5.6%
same,Degradation of IMS after 1 week at 54° C.,[19],−75.8%
same,Degradation of IMS after 4 weeks at 40° C.,[19],−39.6%
same,Degradation of IMS after 8 weeks at 40° C.,[19],−63.6%
same,Degradation of IMS after 12 weeks at 35° C.,[19],−54.6%
same,Degradation of IMS after 1 week at 54° C.,[20],−11.4%
same,Degradation of IMS after 4 weeks at 40° C.,[20],−2.3%
same,Degradation of IMS after 8 weeks at 40° C.,[20],−3%
same,Degradation of IMS after 12 weeks at 35° C.,[20],−3%
CCCCCCC(O)CCCCCCCCCCC(=O)[O-].[Li+] (stereo not drawn) [lithium hydroxystearate],stabilizing effect on the sodium salt of iodosulfuron,hydroxystearate as thickener in oil-based liquid formulations of iodosulfuron-methyl sodium salt,particularly significantly stabilizing effect
